From patent US12568972B2, “Pyridazinol compounds and derivatives, preparation methods, herbicidal compositions and applications thereof” (Qingdao Kingagroot Chemical Compound Co., Ltd., priority 2018, dated 2026)

Legend:
Experiment in all cases: Post-emergence test, weed control effect
Assay type in all cases: in vivo
Settings in all cases: Dose 3000 g/ha, after 3 weeks
[1] = tested on: Chenopodiaceae
Text: (§1) The activity level standard of harmful plant destruction (i.e. growth inhibition rate) is as follows: • Level 10: completely dead; • Level 9: above 90% growth inhibition rate; • Level 8: above 80% growth inhibition rate; • Level 7: above 70% growth inhibition rate; • Level 6: above 60% growth inhibition rate; • Level 5: above 50% growth inhibition rate; • Level 4: above 40% growth inhibition rate; • Level 3: above 30% growth inhibition rate; • Level 2: above 20% growth inhibition rate; • Level 1: below 20% growth inhibition rate; • Level 0: no effect.
(§2) The above described growth inhibition rates are fresh weight inhibition rates.
(§3) Experiment of post-emergence test: monocotyledonous and dicotyledonous weed seeds as well as main crop seeds (i.e., wheat, corn, rice, soybean, cotton, oilseed rape, millet and sorghum) were put into a plastic pot loaded with soil, then covered with 0.5-2 cm of soil, and the seeds were allowed to grow in good greenhouse environment. The test plants were treated at 2-3 leaf stage 2-3 weeks after sowing. The test compounds of the invention were dissolved in acetone respectively, then added with Tween-80 and diluted by a certain amount of water to give solutions with certain concentrations, and added with 80% vegetable oil methyl ester synergist at 1500 g/ha. The solution was sprayed to the plants with a sprayer. The plants were cultured for 3 weeks in the greenhouse.

[2] = tested on: Veronica polita
Text: as §1, §2, §3

[3] = tested on: Rorippa indica
Text: as §1, §2, §3

[4] = tested on: Amaranthus retroflexus
Text: as §1, §2, §3

CC(=O)Oc1cc(C(F)(F)F)nnc1-c1cccc(F)c1 [Compound 1-1]
10: weed control effect, Chenopodiaceae (activity level) [1] | weed control effect, Veronica polita (activity level) [2] | weed control effect, Rorippa indica (activity level) [3] | weed control effect, Amaranthus retroflexus (activity level) [4]

CC(=O)Oc1cc(C(F)(F)F)nnc1-c1ccc(F)cc1 [Compound 1-2]
10: weed control effect, Chenopodiaceae (activity level) [1] | weed control effect, Veronica polita (activity level) [2] | weed control effect, Rorippa indica (activity level) [3] | weed control effect, Amaranthus retroflexus (activity level) [4]

CCC(=O)Oc1cc(C(F)(F)F)nnc1-c1ccc(F)c(F)c1 [Compound 1-3]
10: weed control effect, Chenopodiaceae (activity level) [1] | weed control effect, Veronica polita (activity level) [2] | weed control effect, Rorippa indica (activity level) [3] | weed control effect, Amaranthus retroflexus (activity level) [4]

CCC(=O)Oc1cc(C(F)(F)F)nnc1-c1ccc(F)cc1 [Compound 1-4]
10: weed control effect, Chenopodiaceae (activity level) [1] | weed control effect, Veronica polita (activity level) [2] | weed control effect, Rorippa indica (activity level) [3] | weed control effect, Amaranthus retroflexus (activity level) [4]

CCCCC(=O)Oc1cc(C(F)(F)F)nnc1-c1ccc(Cl)c(Cl)c1 [Compound 1-7]
10: weed control effect, Chenopodiaceae (activity level) [1] | weed control effect, Veronica polita (activity level) [2] | weed control effect, Rorippa indica (activity level) [3] | weed control effect, Amaranthus retroflexus (activity level) [4]

CC(C)CC(=O)Oc1cc(C(F)(F)F)nnc1-c1cccc(C(F)(F)F)c1 [Compound 1-8]
10: weed control effect, Chenopodiaceae (activity level) [1] | weed control effect, Veronica polita (activity level) [2] | weed control effect, Rorippa indica (activity level) [3] | weed control effect, Amaranthus retroflexus (activity level) [4]

CC(C)(C)C(=O)Oc1cc(C(F)(F)F)nnc1-c1ccc(C(F)(F)F)nc1 [Compound 1-9]
10: weed control effect, Chenopodiaceae (activity level) [1] | weed control effect, Veronica polita (activity level) [2] | weed control effect, Rorippa indica (activity level) [3] | weed control effect, Amaranthus retroflexus (activity level) [4]

CCCCCC(=O)Oc1cc(C(F)(F)F)nnc1-c1ccc(C#N)cc1 [Compound 1-10]
10: weed control effect, Chenopodiaceae (activity level) [1] | weed control effect, Veronica polita (activity level) [2] | weed control effect, Rorippa indica (activity level) [3] | weed control effect, Amaranthus retroflexus (activity level) [4]

CCCCCCCC(=O)Oc1cc(C(F)(F)F)nnc1-c1ccc(F)c(F)c1 [Compound 1-14]
10: weed control effect, Chenopodiaceae (activity level) [1] | weed control effect, Veronica polita (activity level) [2] | weed control effect, Rorippa indica (activity level) [3] | weed control effect, Amaranthus retroflexus (activity level) [4]

CCCCCCCCC(=O)Oc1cc(C(F)(F)F)nnc1-c1cccc(Br)c1 [Compound 1-15]
10: weed control effect, Chenopodiaceae (activity level) [1] | weed control effect, Veronica polita (activity level) [2] | weed control effect, Rorippa indica (activity level) [3] | weed control effect, Amaranthus retroflexus (activity level) [4]

O=C(CC1CCCC1)Oc1cc(C(F)(F)F)nnc1-c1ccc(C(F)(F)F)cc1 [Compound 1-18]
10: weed control effect, Chenopodiaceae (activity level) [1] | weed control effect, Veronica polita (activity level) [2] | weed control effect, Rorippa indica (activity level) [3] | weed control effect, Amaranthus retroflexus (activity level) [4]

O=C(Oc1cc(C(F)(F)F)nnc1-c1ccccc1)C1CCCCC1 [Compound 1-19]
10: weed control effect, Chenopodiaceae (activity level) [1] | weed control effect, Veronica polita (activity level) [2] | weed control effect, Rorippa indica (activity level) [3] | weed control effect, Amaranthus retroflexus (activity level) [4]

CC(Cl)C(=O)Oc1cc(C(F)(F)F)nnc1-c1ccc(C(F)(F)F)cc1 (centres unmarked) [Compound 1-22]
10: weed control effect, Chenopodiaceae (activity level) [1] | weed control effect, Veronica polita (activity level) [2] | weed control effect, Rorippa indica (activity level) [3] | weed control effect, Amaranthus retroflexus (activity level) [4]

O=C(CCCBr)Oc1cc(C(F)(F)F)nnc1-c1ccc(F)c(F)c1 [Compound 1-23]
10: weed control effect, Chenopodiaceae (activity level) [1] | weed control effect, Veronica polita (activity level) [2] | weed control effect, Rorippa indica (activity level) [3] | weed control effect, Amaranthus retroflexus (activity level) [4]

O=C(Oc1cc(C(F)(F)F)nnc1-c1ccc(F)cc1)C(F)(F)C(F)(F)C(F)(F)F [Compound 1-25]
10: weed control effect, Chenopodiaceae (activity level) [1] | weed control effect, Veronica polita (activity level) [2] | weed control effect, Rorippa indica (activity level) [3] | weed control effect, Amaranthus retroflexus (activity level) [4]

CCOC(=O)Oc1cc(C(F)(F)F)nnc1-c1ccc(F)c(F)c1 [Compound 1-26]
10: weed control effect, Chenopodiaceae (activity level) [1] | weed control effect, Veronica polita (activity level) [2] | weed control effect, Rorippa indica (activity level) [3] | weed control effect, Amaranthus retroflexus (activity level) [4]

CCCCOC(=O)Oc1cc(C(F)(F)F)nnc1-c1ccc(F)cc1 [Compound 1-29]
10: weed control effect, Chenopodiaceae (activity level) [1] | weed control effect, Veronica polita (activity level) [2] | weed control effect, Rorippa indica (activity level) [3] | weed control effect, Amaranthus retroflexus (activity level) [4]

CC(C)COC(=O)Oc1cc(C(F)(F)F)nnc1-c1cccc(C(F)(F)F)c1 [Compound 1-30]
10: weed control effect, Chenopodiaceae (activity level) [1] | weed control effect, Veronica polita (activity level) [2] | weed control effect, Rorippa indica (activity level) [3] | weed control effect, Amaranthus retroflexus (activity level) [4]

CCCCCOC(=O)Oc1cc(C(F)(F)F)nnc1-c1ccc(F)c(F)c1 [Compound 1-31]
10: weed control effect, Chenopodiaceae (activity level) [1] | weed control effect, Veronica polita (activity level) [2] | weed control effect, Rorippa indica (activity level) [3] | weed control effect, Amaranthus retroflexus (activity level) [4]

Cc1ccc(-c2nnc(C(F)(F)F)cc2OC(=O)OCC(C)(C)C)c([N+](=O)[O-])c1 [Compound 1-33]
10: weed control effect, Chenopodiaceae (activity level) [1] | weed control effect, Veronica polita (activity level) [2] | weed control effect, Rorippa indica (activity level) [3] | weed control effect, Amaranthus retroflexus (activity level) [4]

CCCCCCOC(=O)Oc1cc(C(F)(F)F)nnc1-c1ccc(Cl)c([N+](=O)[O-])c1 [Compound 1-35]
10: weed control effect, Chenopodiaceae (activity level) [1] | weed control effect, Veronica polita (activity level) [2] | weed control effect, Rorippa indica (activity level) [3] | weed control effect, Amaranthus retroflexus (activity level) [4]

CCCCC(CC)OC(=O)Oc1cc(C(F)(F)F)nnc1-c1ccc(Br)c([N+](=O)[O-])c1 (centres unmarked) [Compound 1-36]
10: weed control effect, Chenopodiaceae (activity level) [1] | weed control effect, Veronica polita (activity level) [2] | weed control effect, Rorippa indica (activity level) [3] | weed control effect, Amaranthus retroflexus (activity level) [4]

CCCCCCCOC(=O)Oc1cc(C(F)(F)F)nnc1-c1ccc(Cl)c(Cl)c1Cl [Compound 1-38]
10: weed control effect, Chenopodiaceae (activity level) [1] | weed control effect, Veronica polita (activity level) [2] | weed control effect, Rorippa indica (activity level) [3] | weed control effect, Amaranthus retroflexus (activity level) [4]

CCCCCCCCOC(=O)Oc1cc(C(F)(F)F)nnc1-c1ccc(C(F)(F)F)cc1 [Compound 1-40]
10: weed control effect, Chenopodiaceae (activity level) [1] | weed control effect, Veronica polita (activity level) [2] | weed control effect, Rorippa indica (activity level) [3] | weed control effect, Amaranthus retroflexus (activity level) [4]

CCSC(=O)Oc1cc(C(F)(F)F)nnc1-c1ccc(F)c(F)c1 [Compound 1-42]
10: weed control effect, Chenopodiaceae (activity level) [1] | weed control effect, Veronica polita (activity level) [2] | weed control effect, Rorippa indica (activity level) [3] | weed control effect, Amaranthus retroflexus (activity level) [4]

CC(C)(C)SC(=O)Oc1cc(C(F)(F)F)nnc1-c1cc(Cl)ccc1Cl [Compound 1-47]
10: weed control effect, Chenopodiaceae (activity level) [1] | weed control effect, Veronica polita (activity level) [2] | weed control effect, Rorippa indica (activity level) [3] | weed control effect, Amaranthus retroflexus (activity level) [4]

CC(C)(C)CSC(=O)Oc1cc(C(F)(F)F)nnc1-c1cccc(Br)c1 [Compound 1-51]
10: weed control effect, Chenopodiaceae (activity level) [1] | weed control effect, Veronica polita (activity level) [2] | weed control effect, Rorippa indica (activity level) [3] | weed control effect, Amaranthus retroflexus (activity level) [4]

COC(=O)/C=C/c1nnc(C(F)(F)F)cc1O [Compound 1522]
10: weed control effect (activity level), Chenopodiaceae [1] | weed control effect (activity level), Amaranthus retroflexus [4]
